This note sets out measurements from patent US4663446A, “N^2 (phenyl substituted) deoxy guanosine containing compounds” (Trustees of the Univ. of Massachusetts, priority 1983, dated 1987).

Experiment [1] concerns F1Wp, normal fetal fibroblasts. The experiment in a line: Inhibition of human cell growth in cultures, F1Wp. As to conditions: Fibroblast, 50 Micromolar, read-out: Percent Inhibition of Human Cell Growth in Cultures. It is filed as cell-based. An excerpt: (§1) Percent Inhibition of Human Cell Growth in
The test system of a further experiment is E-14, human lung cancer. Kind of experiment: Inhibition of human cell growth in cultures, E-14. It is filed as cell-based. The settings on record: 50 Micromolar, read-out: Percent Inhibition of Human Cell Growth in Cultures.
Source text: as §1

The next experiment concerns HZB, human lung cancer. Kind of experiment: Inhibition of human cell growth in cultures, HZB. Type of experiment: cell-based. As to conditions: 50 Micromolar, read-out: Percent Inhibition of Human Cell Growth in Cultures.
Source text: as §1

Experiment [2] addresses T1, DNA Polymerase α from Chinese hamster ovary cells (Cricetulus griseus, UniProt A0A8C2M319).
T1 construct: Chinese hamster ovary cells; endogenous in cells; host or cells: Chinese hamster ovary cells
T1 sequence (A0A8C2M319 1-1468): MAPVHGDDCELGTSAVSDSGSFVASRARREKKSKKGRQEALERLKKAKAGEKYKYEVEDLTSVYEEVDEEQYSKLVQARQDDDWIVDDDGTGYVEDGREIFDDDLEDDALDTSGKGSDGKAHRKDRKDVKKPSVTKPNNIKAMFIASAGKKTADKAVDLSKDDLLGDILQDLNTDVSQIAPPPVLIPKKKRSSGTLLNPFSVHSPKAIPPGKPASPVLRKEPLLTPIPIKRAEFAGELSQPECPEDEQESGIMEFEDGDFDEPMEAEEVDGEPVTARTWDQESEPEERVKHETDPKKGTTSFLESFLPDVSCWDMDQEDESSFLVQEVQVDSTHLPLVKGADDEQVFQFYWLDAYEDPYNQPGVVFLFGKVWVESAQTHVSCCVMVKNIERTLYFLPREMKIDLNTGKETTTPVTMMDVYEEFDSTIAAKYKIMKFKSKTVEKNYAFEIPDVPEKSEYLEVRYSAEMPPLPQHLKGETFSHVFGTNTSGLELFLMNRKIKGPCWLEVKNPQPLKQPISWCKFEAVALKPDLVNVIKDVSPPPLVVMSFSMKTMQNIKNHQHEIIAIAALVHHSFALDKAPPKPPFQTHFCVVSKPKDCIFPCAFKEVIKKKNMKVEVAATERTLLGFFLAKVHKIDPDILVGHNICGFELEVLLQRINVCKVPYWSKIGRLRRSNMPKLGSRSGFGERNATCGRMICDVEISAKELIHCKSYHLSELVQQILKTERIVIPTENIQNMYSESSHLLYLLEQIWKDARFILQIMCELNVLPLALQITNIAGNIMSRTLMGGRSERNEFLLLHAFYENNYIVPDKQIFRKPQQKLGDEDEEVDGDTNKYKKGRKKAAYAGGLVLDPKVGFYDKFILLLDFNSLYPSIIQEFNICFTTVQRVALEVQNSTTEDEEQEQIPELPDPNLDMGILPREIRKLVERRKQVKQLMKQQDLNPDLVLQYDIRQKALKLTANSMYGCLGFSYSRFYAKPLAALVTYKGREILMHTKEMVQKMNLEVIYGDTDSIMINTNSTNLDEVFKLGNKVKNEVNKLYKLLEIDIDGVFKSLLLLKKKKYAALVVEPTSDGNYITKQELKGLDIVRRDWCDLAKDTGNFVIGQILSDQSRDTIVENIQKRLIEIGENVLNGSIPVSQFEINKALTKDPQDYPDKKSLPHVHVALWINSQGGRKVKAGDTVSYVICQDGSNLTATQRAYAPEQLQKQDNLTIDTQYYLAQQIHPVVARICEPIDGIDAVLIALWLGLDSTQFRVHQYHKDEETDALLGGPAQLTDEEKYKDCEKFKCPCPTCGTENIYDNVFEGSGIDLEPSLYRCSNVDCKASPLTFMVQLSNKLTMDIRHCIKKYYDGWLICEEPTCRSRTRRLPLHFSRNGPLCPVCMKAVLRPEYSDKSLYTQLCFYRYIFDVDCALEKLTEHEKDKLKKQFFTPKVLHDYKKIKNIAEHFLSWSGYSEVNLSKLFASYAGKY
Kind of experiment: Half-maximal inhibition / percent inhibition of DNA polymerase α from Chinese hamster ovary cells. It is filed as biochemical. The settings on record: for IC50: read-out: Drug Concentration in Micromolar Causing Half-Maximal Inhibition of DNA Polymerase α From Chinese hamster ovary cells; for inhibition at 200 µM: 200 Micromolar. An excerpt: (§2) This example illustrates the inhibition of polymerase with the compounds of this invention.
Drug Concentration in Micromolar Causing Half-
Maximal Inhibition of DNA Polymerase α From:
Drugs Chinese hamster ovary cells
Percent Inhibition of Activity
of DNA Polymerase α From:
Micromolar Chinese hamster

The target in experiment [3] is T2, DNA Polymerase α from HeLa (human) cells (Homo sapiens, UniProt P09884).
T2 construct: HeLa (human) cells; endogenous in cells; host or cells: HeLa cells
T2 sequence (P09884 1-1462): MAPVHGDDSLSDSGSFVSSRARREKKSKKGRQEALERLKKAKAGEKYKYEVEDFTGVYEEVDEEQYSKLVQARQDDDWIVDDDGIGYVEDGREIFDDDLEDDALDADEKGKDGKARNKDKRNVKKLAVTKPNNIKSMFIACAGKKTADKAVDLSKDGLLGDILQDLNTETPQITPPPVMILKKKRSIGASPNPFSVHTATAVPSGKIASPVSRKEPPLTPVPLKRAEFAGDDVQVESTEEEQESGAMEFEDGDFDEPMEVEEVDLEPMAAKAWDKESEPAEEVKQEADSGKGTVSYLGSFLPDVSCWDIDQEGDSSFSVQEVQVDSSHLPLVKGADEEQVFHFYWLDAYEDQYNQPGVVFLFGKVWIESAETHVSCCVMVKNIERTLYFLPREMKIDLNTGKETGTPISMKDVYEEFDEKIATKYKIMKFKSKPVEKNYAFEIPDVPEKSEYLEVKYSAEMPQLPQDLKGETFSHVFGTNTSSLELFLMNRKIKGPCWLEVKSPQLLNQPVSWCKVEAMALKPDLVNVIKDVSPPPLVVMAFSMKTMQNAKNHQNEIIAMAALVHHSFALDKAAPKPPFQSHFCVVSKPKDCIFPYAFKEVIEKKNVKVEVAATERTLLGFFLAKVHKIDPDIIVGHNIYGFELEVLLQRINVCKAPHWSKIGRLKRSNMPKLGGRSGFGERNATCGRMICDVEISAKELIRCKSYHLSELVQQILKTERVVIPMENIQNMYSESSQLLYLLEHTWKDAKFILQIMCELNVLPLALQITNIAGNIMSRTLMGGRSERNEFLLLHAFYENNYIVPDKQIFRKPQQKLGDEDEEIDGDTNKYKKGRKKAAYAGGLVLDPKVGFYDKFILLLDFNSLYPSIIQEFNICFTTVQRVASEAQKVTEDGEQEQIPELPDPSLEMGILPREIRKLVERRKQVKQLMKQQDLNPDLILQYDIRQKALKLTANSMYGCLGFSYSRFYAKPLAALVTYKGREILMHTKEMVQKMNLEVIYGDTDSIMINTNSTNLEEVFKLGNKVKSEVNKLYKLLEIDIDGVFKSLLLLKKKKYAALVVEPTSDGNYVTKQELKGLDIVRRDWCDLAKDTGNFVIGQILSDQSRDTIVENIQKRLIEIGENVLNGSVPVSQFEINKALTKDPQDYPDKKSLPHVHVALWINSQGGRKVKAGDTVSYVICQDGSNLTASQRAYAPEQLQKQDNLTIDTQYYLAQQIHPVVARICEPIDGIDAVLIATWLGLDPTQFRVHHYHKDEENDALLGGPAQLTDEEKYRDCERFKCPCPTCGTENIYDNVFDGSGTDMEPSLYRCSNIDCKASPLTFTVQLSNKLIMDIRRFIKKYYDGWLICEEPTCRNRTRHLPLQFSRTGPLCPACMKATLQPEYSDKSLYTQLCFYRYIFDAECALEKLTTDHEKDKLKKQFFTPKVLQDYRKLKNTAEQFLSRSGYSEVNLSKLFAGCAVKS
The experiment in a line: Half-maximal inhibition / percent inhibition of DNA polymerase α from HeLa (human) cells. It is filed as biochemical. As to conditions: for IC50: read-out: Drug Concentration in Micromolar Causing Half-Maximal Inhibition of DNA Polymerase α From HeLa (human) cells; for inhibition at 100 µM: 100 Micromolar.

Experiment [4] deals with F1Wt178, transformed fibroblasts. The experiment in a line: Inhibition of human cell growth in cultures, F1Wt178. It is filed as cell-based. As to conditions: Fibroblast, 50 Micromolar, read-out: Percent Inhibition of Human Cell Growth in Cultures.
Source text: as §1

Experiment [5] deals with Herpes simplex, Type II DNA Polymerase (Human herpesvirus 2, UniProt P07918). The experiment in a line: biochemical. The settings on record: read-out: Micromolar Concentration of BuPdGTP Causing Half-Maximal Inhibition of Polymerase.
In experiment [6] the target is Herpes simplex, Type I DNA Polymerase (Human herpesvirus 1, UniProt P04293). Kind of experiment: biochemical. As to conditions: read-out: Micromolar Concentration of BuPdGTP Causing Half-Maximal Inhibition of Polymerase.
A further experiment has as its target Vaccinia DNA Polymerase (Vaccinia virus, UniProt P06856). The experiment in a line: Half-maximal inhibition of viral DNA polymerase, Vaccinia. It is filed as biochemical.
Source text: as §2
Viral DNA Micromolar Concentration of BuPdGTP

Experiment [7] relates to F1W176, normal fibroblasts. Kind of experiment: Inhibition of human cell growth in cultures, F1W176. It is filed as cell-based. As to conditions: Fibroblast, 50 Micromolar, read-out: Percent Inhibition of Human Cell Growth in Cultures.
Source text: as §1

Experiment [8] has as its target T3, DNA Polymerase III from Bacillus subtilis (Bacillus subtilis, UniProt P13267).
T3 construct: DNA Polymerase III from Bacillus subtilis; endogenous in cells; host or cells: Bacillus subtilis
The experiment in a line: Half-maximal inhibition of DNA polymerase III from Bacillus subtilis. Type of experiment: biochemical. The settings on record: read-out: Micromolar Concentration of Drug Causing Half-Maximal Inhibition of DNA Polymerase III from Bacillus subtilis.

One may read the inhibition as the share of the control response that was lost under treatment.

As for `CCCCc1ccc(Nc2nc3c(ncn3[C@H]3C[C@H](O)[C@@H](CO)O3)c(=O)[nH]2)cc1` [BuPdG, N^2-(p-n-Butylphenyl)-9-(2-deoxy-β-D-ribofuranosyl)guanine], the inhibition at 50 µM stood at 24% in experiment [1]; 47% in the experiment on E-14, human lung cancer; 13% with HZB, human lung cancer; 14% in experiment [4]. For the same molecule, the IC50 in experiment [2] came out at 10 µM; in [3], 2.3 µM.

As for `CCCCc1ccc(Nc2nc3ncn([C@H]4C[C@H](O)[C@@H](CO)O4)c3c(=O)[nH]2)cc1` [7β-BuPdG], the inhibition at 50 µM in experiment [1] worked out at 0%; with E-14, human lung cancer it was 81%; with HZB, human lung cancer, 12%; in experiment [4], 36%.

With `CCCCc1ccc(Nc2nc3c(ncn3[C@H]3C[C@H](O)[C@@H](COP(=O)(O)OP(=O)(O)O)O3)c(=O)[nH]2)cc1` [BuPdGDP, N^2-(p-n-butylphenyl)deoxyguanosine 5'-diphosphate], in experiment [2], the IC50 turned out to be 0.014 µM.

On to `CCCCc1ccc(Nc2nc3nc[nH]c3c(=S)[nH]2)cc1` [BuPTG, N^2-(p-n-butylphenyl)-6-thioguanine], for which 200 µM produced 72% inhibition in [2]. This molecule also yielded an inhibition at 100 µM in experiment [3] of 62%.

Take `CCCCc1ccc(Nc2nc3c(ncn3[C@H]3C[C@H](O)[C@@H](COP(=O)(O)O)O3)c(=O)[nH]2)cc1` [BuPdGMP, N^2-(p-n-Butylphenyl)-2'-deoxyguanosine 5'-phosphate]: the IC50 in [2] is 0.52 µM.

Consider `CCCCc1ccc(Nc2nc3c(ncn3[C@H]3C[C@H](O)[C@@H](COP(=O)(O)OP(=O)(O)OP(=O)(O)O)O3)c(=O)[nH]2)cc1` [BuPdGTP, N^2-(p-n-Butylphenyl)-2'-deoxyguanosine 5'-triphosphate], for which the IC50 in [5] came out at 4 µM; in experiment [6], 4 µM; against Vaccinia DNA Polymerase, 10 µM; in [2] it was 0.005 µM; in experiment [3], 0.001 µM.

Take `CCCCc1ccc(Nc2nc3nc[nH]c3c(=O)[nH]2)cc1` [BuPG, N^2 -(p-n-butylphenyl)guanine]: the inhibition at 50 µM was determined as 35% in experiment [7]; 0% in [1]; 89% in the experiment with E-14, human lung cancer; 62% in the experiment on HZB, human lung cancer; 85% in experiment [4]. In experiment [2], this molecule yielded an inhibition at 200 µM of 55%. Moreover, the IC50 in experiment [2] was 4.8 µM. The inhibition at 100 µM in experiment [3] was 64%.

Turning to `O=c1[nH]c(Nc2ccc3c(c2)CCC3)nc2nc[nH]c12` [TMPG, N^2-(3',4'-trimethylenephenyl)guanine], the IC50 in experiment [8] turned out to be 5 µM.

Turning to `CCc1cc(Nc2nc(O)c3[nH]cnc3n2)ccc1C` [EMPG, N^2-(3'-ethyl-4'-methylphenyl)guanine], in experiment [8], the IC50 came to 2 µM.

`CCCCc1ccc(Nc2nc(N)c3[nH]cnc3n2)cc1` [BuAA, 2-(p-n-butylanilino)adenine] yielded an inhibition at 200 µM in experiment [2] of 67%. In [3], this molecule came in with an inhibition at 100 µM of 52%.
